Assay results from PMC8286840, “Identifying SARS-CoV-2 antiviral compounds by screening for small molecule inhibitors of Nsp3 papain-like protease” (Biochemical Journal, 2021).
Where a name gives a salt, the structure may show the parent alone. Read-outs that look alike come from different tables or passages of the source.

Tests used:
[1] = molecular target: T1, SARS-CoV-2 PLpro (nsp3 1564–1878) (Severe acute respiratory syndrome coronavirus 2, UniProt P0DTD1); experiment: biochemical; parameters: FRET-quenched peptide (Pro3) cleavage by PLpro, 10 min pre-incubation, slope over 20 min, normalised to no-compound control; settings: low concentration screen, read-out: % of control remaining
Protocol: The plates were organized with columns 3–22 containing the compounds; the remaining columns were used for reaction controls including substrate only and substrate with enzyme but no compound (Figure 3Aii). The PLpro enzyme was pre-incubated with the compounds for 10 min, and then the reaction was initiated by the addition of substrate. […] We incubated the inhibitors with PLpro before the enzymatic reaction so that the slow-binding inhibitors will not be missed out [21]. […] Fluorescence was read on a Spark multimode microplate reader (Tecan) with an excitation wavelength at 330 nm and emission wavelength at 420 nm. […] An amount of 5 µl of the enzyme was pre-incubated with compounds for 10 min before the addition of 15 µl substrate. Fluorescence was monitored at 2 min for 20 min with 3 min intervals giving a total of seven readings.

[2] = molecular target: T1, SARS-CoV-2 PLpro (nsp3 1564–1878); experiment: biochemical; parameters: FRET-quenched peptide (Pro3) cleavage by PLpro, 10 min pre-incubation, slope over 20 min, normalised to no-compound control; settings: high concentration screen, read-out: % of control remaining

Cc1cc(Cn2nnc3c(-c4ccco4)nc(N)nc32)ccc1N [Vipadenant]
remaining activity at 1.25 µM ([1]; Well no.=8603): 95.2%
remaining activity at 3.75 µM ([2]; Well no.=8603): 92.7%

Cc1ccc(NC2=CC(=O)c3sc(C)nc3C2=O)cc1 [Ryuvidine - 2-Methyl-5-[(4-methylphenyl)amino]-4,7-benzothiazoledione]
remaining activity at 1.25 µM ([1]; Well no.=2584): 86.3%
remaining activity at 3.75 µM ([2]; Well no.=2584): 85%

COc1ccc(-c2ccc3cc(C(=O)O)ccc3c2)cc1[C@]12C[C@H]3C[C@H](C[C@H](C3)C1)C2 [Adapalene]
remaining activity at 1.25 µM ([1]; Well no.=1939): 99.2%
remaining activity at 3.75 µM ([2]; Well no.=1939): 103%

C=C1C(=O)[C@]23[C@H](CC[C@@H]1[C@@H]2O)[C@]12CO[C@@]3(O)[C@H](O)[C@H]1C(C)(C)CC[C@@H]2O [Rubescensin A]
remaining activity at 1.25 µM ([1]; Well no.=3707): 95.2%
remaining activity at 3.75 µM ([2]; Well no.=3707): 93.6%

CCc1cccc(N(C)C(=N)Nc2cccc3ccccc23)c1 [CNS-1102]
remaining activity at 1.25 µM ([1]; Well no.=366): 99.2%
remaining activity at 3.75 µM ([2]; Well no.=366): 100%

CC(/C=C/c1cccc(Oc2ccc(F)cc2)c1)N(O)C(N)=O (stereo not shown) [BWB70C]
remaining activity at 1.25 µM ([1]; Well no.=221): 103%
remaining activity at 3.75 µM ([2]; Well no.=221): 102%

Cc1cn([C@@H]2O[C@H](CO)[C@@H](O)[C@H]2O)c(=O)nc1N [5-Methylcytidine]
remaining activity at 1.25 µM ([1]; Well no.=6585): 103%
remaining activity at 1.25 µM ([1]; Well no.=8853): 100%
remaining activity at 3.75 µM ([2]; Well no.=6585): 104%
remaining activity at 3.75 µM ([2]; Well no.=8853): 88.8%

C=C(C)[C@H]1CN[C@H](C(=O)O)[C@H]1CC(=O)O [Kainic acid]
remaining activity at 1.25 µM ([1]; Well no.=829): 106%
remaining activity at 1.25 µM ([1]; Well no.=7792): 105%
remaining activity at 3.75 µM ([2]; Well no.=829): 105%
remaining activity at 3.75 µM ([2]; Well no.=3369): 104%
remaining activity at 3.75 µM ([2]; Well no.=7792): 102%

NCCCCCCCCCCN [1,10-Diaminodecane]
remaining activity at 1.25 µM ([1]; Well no.=642): 94.7%
remaining activity at 3.75 µM ([2]; Well no.=642): 91.7%

NC(N)=NCCCCN=C(N)N [Arcaine sulfate]
remaining activity at 1.25 µM ([1]; Well no.=293): 99.2%
remaining activity at 3.75 µM ([2]; Well no.=293): 96.8%

O=[N+]([O-])c1ccc(CNc2nc(NCc3cccc(C(F)(F)F)c3)nc3nc[nH]c23)cc1 [IP3K Inhibitor]
remaining activity at 1.25 µM ([1]; Well no.=2477): 103%
remaining activity at 3.75 µM ([2]; Well no.=2477): 105%

CCOc1nc2cccc(C(=O)O)c2n1Cc1ccc(-c2ccccc2-c2noc(=O)[nH]2)cc1 [Azilsartan]
remaining activity at 1.25 µM ([1]; Well no.=5416): 97.2%
remaining activity at 1.25 µM ([1]; Well no.=6813): 90.2%
remaining activity at 3.75 µM ([2]; Well no.=5416): 95.7%
remaining activity at 3.75 µM ([2]; Well no.=6813): 89.9%

O=C(Nc1cccc(C(F)(F)F)c1)Nc1cc(S(=O)(=O)NC2CC2)ccc1-c1ccsc1 [N-cyclopropyl-4-(thiophen-3-yl)-3-(3-(3-(trifluoromethyl)phenyl)ureido)benzenesulfonamide]
remaining activity at 1.25 µM ([1]; Well no.=5549): 100%
remaining activity at 3.75 µM ([2]; Well no.=5549): 103%

CC(C)COc1ccc(CNC(=O)N(Cc2ccc(F)cc2)C2CCN(C)CC2)cc1 [Pimavanserin tartrate]
remaining activity at 1.25 µM ([1]; Well no.=6989): 103%
remaining activity at 3.75 µM ([2]; Well no.=6989): 102%

CCCC(=O)Nc1cccc(NC(=O)c2ccccc2Br)c1 [ML-161]
remaining activity at 1.25 µM ([1]; Well no.=4845): 95%
remaining activity at 3.75 µM ([2]; Well no.=4845): 93%

CC(C)CC(=O)Nc1n[nH]c2c1CN(C(=O)C1CCN(C)CC1)C2(C)C [PHA-793887]
remaining activity at 1.25 µM ([1]; Well no.=4907): 94.3%
remaining activity at 3.75 µM ([2]; Well no.=4907): 93.7%

CCCCCCCC/C=C\CCCCCCCC(=O)O [Oleic Acid]
remaining activity at 1.25 µM ([1]; Well no.=848): 102%
remaining activity at 3.75 µM ([2]; Well no.=848): 101%
remaining activity at 3.75 µM ([2]; Well no.=7347): 104%

CC[C@@H](CO)Nc1nc(NCc2ccc(-c3ccccn3)cc2)c2ncn(C(C)C)c2n1 [CR8, (S)-Isomer]
remaining activity at 1.25 µM ([1]; Well no.=2343): 103%
remaining activity at 3.75 µM ([2]; Well no.=2343): 102%

CC(C)n1cnc2c(NCc3ccccc3O)nc(NCCCO)nc21 [Cdk Inhibitor, p35]
remaining activity at 1.25 µM ([1]; Well no.=2387): 94.5%
remaining activity at 3.75 µM ([2]; Well no.=2387): 97%

CCOC(=O)Nc1ccc(NCc2ccc(F)cc2)nc1N [Flupirtine maleate]
remaining activity at 1.25 µM ([1]; Well no.=711): 95.7%
remaining activity at 3.75 µM ([2]; Well no.=711): 90.6%

CCCC(=O)O [Sodium butyrate]
remaining activity at 1.25 µM ([1]; Well no.=4674): 94.4%
remaining activity at 3.75 µM ([2]; Well no.=4674): 90%

Oc1c2ccccc2c2c3c(cccc13)N=N2 [SP 600125 - Anthra[1-9-cd]pyrazol-6(2H)-one]
remaining activity at 1.25 µM ([1]; Well no.=2432): 96.1%
remaining activity at 3.75 µM ([2]; Well no.=2432): 105%

C=CC(N)CCC(=O)O (racemic)
remaining activity at 1.25 µM ([1]; Well no.=1528): 98.8%
remaining activity at 3.75 µM ([2]; Well no.=1528): 96.6%

OC[C@H]1O[C@@H](O[C@@H]2[C@@H](CO)OC(O)(CO)[C@H]2O)[C@H](O)[C@@H](O)[C@H]1O (mixture of isomers) [Lactulose]
remaining activity at 1.25 µM ([1]; Well no.=8140): 95.7%
remaining activity at 3.75 µM ([2]; Well no.=8140): 97.6%

CNCC(O)c1ccc(O)cc1 (stereo not shown) [Synephrine HCl]
remaining activity at 1.25 µM ([1]; Well no.=4900): 95.6%
remaining activity at 3.75 µM ([2]; Well no.=4900): 91.7%

CC(=O)Oc1cc(C(C)C)c(OCCN(C)C)cc1C [Moxisylyte hydrochloride]
remaining activity at 1.25 µM ([1]; Well no.=976): 103%
remaining activity at 3.75 µM ([2]; Well no.=976): 101%

Cn1ccc2cc3c(cc21)CCN3C(=O)Nc1cccnc1 [SB 206553 hydrochloride]
remaining activity at 1.25 µM ([1]; Well no.=1375): 99.8%
remaining activity at 3.75 µM ([2]; Well no.=1375): 101%

COC(=O)CCc1ccc(OCC(O)CNC(C)C)cc1 (stereo not shown) [Esmolol (hydrochloride)]
remaining activity at 1.25 µM ([1]; Well no.=6651): 105%
remaining activity at 3.75 µM ([2]; Well no.=6651): 107%

CC/C(=C(\c1ccccc1)c1ccc(OCCN(C)C)cc1)c1ccccc1 [Tamoxifen]
remaining activity at 1.25 µM ([1]; Well no.=2240): 90.7%
remaining activity at 3.75 µM ([2]; Well no.=2240): 93.3%

CN1c2c([nH]c(N)nc2=O)NC[C@@H]1CNc1ccc(C(=O)N[C@@H](CCC(=O)O)C(=O)O)cc1 [Levomefolic acid]
remaining activity at 1.25 µM ([1]; Well no.=7940): 101%
remaining activity at 3.75 µM ([2]; Well no.=7940): 101%

O=c1[nH]cc(CO)c(=O)[nH]1 [5-Hydroxymethyluracil]
remaining activity at 1.25 µM ([1]; Well no.=6499): 99.6%
remaining activity at 3.75 µM ([2]; Well no.=6499): 101%

C=C1O[C@@](CO)(n2cnc3c(N)ncnc32)[C@H](O)[C@@H]1O [Decoyinine]
remaining activity at 1.25 µM ([1]; Well no.=3223): 100%
remaining activity at 3.75 µM ([2]; Well no.=3223): 104%

Cc1nccn1CCC(C(N)=O)(c1ccccc1)c1ccccc1 [Imidafenacin]
remaining activity at 1.25 µM ([1]; Well no.=6377): 102%
remaining activity at 3.75 µM ([2]; Well no.=6377): 97.6%

COc1cc(Nc2ncc3ccn(-c4cccc(CCC#N)c4)c3n2)cc(OC)c1OC [Keratinocyte Differentiation Inducer]
remaining activity at 1.25 µM ([1]; Well no.=2379): 101%
remaining activity at 3.75 µM ([2]; Well no.=2379): 103%
